From patent publication US9404080B2, “Human taste cells capable of continuous proliferation” (B.R.A.I.N. BIOTECHNOLOGY RESEARCH AND INFORMATION NETWORK AG, priority 2012, dated 2016) come the findings set out here.

The subject of assay [1] is human taste cells BR-HTC8. The assay can be described thus: Fluo-4 fluorescent calcium imaging assay in BR-HTC8. For Fluo-4 assay BR-HTC8: key: + indicates that the analysis was successful and that the mRNA was detected by RT-PCR or that stimulation of human taste cells with the respective taste molecule resulted in a dose-dependent increase in intracellular calcium or decrease in cellular membrane potential. Format: cell-based. To be noted: for change of Fluo4-fluorescence / intracellular calcium on addition of the test molecule: BR-HTC8, increasing concentrations in KH-buffer with Ca2+; for Fluo-4 calcium response in the absence of extracellular Ca2+: KH-buffer without Ca2+, BR-HTC8, molecule alone; for Fluo-4 assay BR-HTC8: dose-dependent increase in intracellular calcium on stimulation with the cognate bitter molecule of the TAS2R named in the row. The protocol: Before the assay, cells are maintained in HTC medium for at least 48 hours as described in Example 1. Cells are then trypsinized with accutase (e.g. PAA, L11-007) or TrypLE (e.g. Gibco, 12563) and seeded into poly-D-lysine coated 96-well assay plates (e.g. Corning) at a density of 15,000 cells/well in 100 μl HTC medium.
After 24 hours, the cells (still in 100 μl medium) are stained by addition of 100 μl of Fluo-4 staining solution, which consists of KH buffer (10 mM HEPES pH7.4 containing 118 mM NaCl, 4.7 mM KCl, 4.2 mM NaHCO3, 1.2 mM KH2PO4, 1.2 mM MgSO4, 1.3 mM CaCl2) containing 4 μM Fluo-4 (Molecular Probes) and incubation for 1 hour at 37° C. Final Fluo-4 concentration in the staining solution/medium mixture is 2 μM. Staining solution is then replaced by 80 μl KH-buffer per well and plates are transferred into a fluorescence microplate reader to monitor changes in Ca^2+-dependent fluorescence (excitation 488 nm, emission 530 nm) after the addition of 20 μl KH-buffer supplemented with the test molecule under investigation. The test molecule was added 16 seconds after starting the scan and baseline recording, mixed twice, and then recording continued for additional 44 seconds. Data points of a total of 18 reads were collected. Data analysis/Data recording—Calcium mobilization was measured as the change of peak fluorescence (ΔF) over the baseline level (F). Data were expressed as the mean S.E. of the ΔF/F value of replicated independent samples. Data analysis was done with software provided by the manufacturer of the microplate reader (e.g. Molecular Devices).
(§1) To test, whether stimulation of human taste cells with these taste molecules leads to changes in intracellular calcium the Fluo-4 fluorescent calcium imaging assay was performed as described above. Non-taste cells including HEK293 cells and non-lingual, proliferating primary cells isolated from the oral cavity served as a control and were treated equally throughout the procedure. Changes in Ca^2+-dependent Fluo-4 fluorescence were recorded on a Molecular Devices Fluorescence microplate reader. Measurement was started by addition of increasing concentrations of the taste molecules in KH-buffer to the cells. KH-buffer served as negative control and KH-buffer containing 1 μM ionomycin served as a positive control. […] Calcium signals for each test molecule are depicted as Relative Fluorescence Units (RFU), which means that calcium mobilization in response to taste molecules was calculated dF/F0, with dF is (peak fluorescence F1−baseline fluorescence F0). […] Data were obtained from several independent experiments and performed in triplicates.
In order to perform to the Fluo-4 fluorescent calcium imaging experiment in the absence of extracellular Ca^2+ the procedure was conducted as described above, however, the KH-buffer was prepared without addition of Ca^2+. Measurement was started by addition of increasing concentrations of the taste molecules in KH-buffer without Ca^2+ to the cells. KH-buffer without Ca^2+ served as negative control and KH-buffer without Ca^2+ containing 1 μM ionomycin served as a positive control.
To test, whether stimulation of human taste cells with oxytocin leads to changes in intracellular calcium the Fluo-4 fluorescent calcium imaging assay was performed as described above in Example 5. Briefly, the human taste cells were seeded in 96-well plates and stained with 2 μM of the calcium-sensitive fluorescence dye Fluo4 in HTC/KH buffer medium for one hour at 37° C. with subsequent replacement of the staining solution with KH-buffer. Non-taste cells including HEK293 cells and non-lingual, proliferating primary cells isolated from the oral cavity served as a control and were treated equally throughout the procedure. Changes in Ca^2+-dependent Fluo-4 fluorescence were recorded on a Molecular Devices Fluorescence microplate reader.
A general note: Calcium assays in cells follow changes in intracellular calcium, usually with a dye or a luminescent sensor.

The next assay has as its system BR-HTC38 cells. The assay can be described thus: Fluo-4 fluorescent calcium imaging assay in TAS2R38-transduced BR-HTC38. The assay is classed as cell-based, human. To be noted: BR-HTC38 (TAS2R38 expressed) vs BR-HTC8. The method, then:
Changes in Ca^2+-dependent Fluo-4 fluorescence were recorded on a Molecular Devices fluorescence microplate reader. Measurement was started by addition of increasing concentrations of the taste molecules in KH-buffer to the cells. KH-buffer served as negative control and KH-buffer containing 1 μM ionomycin served as a positive control. […] Calcium signals for each test molecule are depicted as Relative Fluorescence Units (RFU), which means that calcium mobilization in response to taste molecules was calculated dF/F0, with dF is (peak fluorescence F1−baseline fluorescence F0). […] Data were obtained from several independent experiments and performed in triplicates.

The subject of assay [2] is Non-taste cells including HEK293 cells, Cal33 cells, and non-lingual, proliferating primary cells isolated from the oral cavity. The assay can be described thus: Fluo-4 fluorescent calcium imaging assay in non-taste control cells. The assay is classed as cell-based, human. The protocol: Briefly, human taste cells were seeded in 96-well plates and stained with Fluo4-AM. Non-taste cells including HEK293 cells, Cal33 cells, and non-lingual, proliferating primary cells isolated from the oral cavity served as a control. Changes in Ca^2+-dependent Fluo-4 fluorescence were recorded on a Molecular Devices fluorescence microplate reader. Measurement was started by addition of increasing concentrations of the taste molecules. […] Calcium signals for each test molecule are depicted as relative fluorescence units (RFU).
as §1

For assay [3], the system named is human taste cells BR-HTC8. In words: FLIPR fluorescent membrane potential (FMP) imaging assay in BR-HTC8. Format: cell-based. To be noted: BR-HTC8, increasing concentrations in KH-buffer. The protocol: This cell depolarization was measured by using voltage-sensitive dyes including FLIPR fluorescent membrane potential (FMP) dye (Molecular Devices R8123). Before the assay, cells were maintained in HTC medium for at least 48 hours as described above in Example 1. Cells were then trypsinized with accutase (e.g. PAA, L11-007) or TrypLE (e.g. Gibco, 12563) and seeded into poly-D-lysine coated 96-well assay plates (Corning) at a density of 15,000 cells/well in […].
After 24 hours, medium was removed and the cells are washed once with 100 μl KH buffer (10 mM HEPES pH7.4 containing 118 mM NaCl, 4.7 mM KCl, 4.2 mM NaHCO3, 1.2 mM KH2PO4, 1.2 mM MgSO4, 1.3 mM CaCl2) and then stained with 200 μl KH buffer containing FLIPR FMP dye according instructions of the manufacturer […] and incubation for 2 hours at 37° C. The plates were then transferred into a fluorescence microplate reader to monitor changes in membrane potential-dependent fluorescence (excitation 530 nm, emission 565 nm) after the addition of 50 μl KH-buffer supplemented with the test molecule under investigation. The test molecule was added 16 seconds after starting the scan and baseline recording, mixed twice, and then recording continued for additional 74 seconds. Data points of a total of 35 reads were collected.
Data analysis/Data recording—Changes of the membrane potential was measured as the change of peak fluorescence (ΔF) over the baseline level (F). Data were expressed as the mean S.E. of the ΔF/F value of replicated independent samples. Data analysis was done with software provided by the manufacturer of the microplate reader (Molecular Devices).
(§2) To test, whether stimulation of human taste cells with taste molecules leads to changes in cellular membrane potential the FLIPR fluorescent membrane potential assay was performed as described above. Non-taste cells including HEK293 cells and non-lingual, proliferating primary cells isolated from the oral cavity served as a control and were treated equally throughout the procedure. Changes in membrane potential were recorded on a Molecular Devices Fluorescence microplate reader. Measurement was started by addition of increasing concentrations of the taste molecules in KH-buffer to the cells. KH-buffer served as negative control and KH-buffer containing 4 μM FCCP (e.g. Sigma, C2920) served as a positive control. […] Data were obtained from several independent experiments and performed in triplicates.
as §2, with “This cell depolarization can be measured by using voltage-sensitive dyes including FLIPR fluorescent membrane potential (FMP) dye (Molecular Devices R8123) as described above in Example 6. To” for “To”, “oxytocin” for “taste molecules”, “oxytocin” for “the taste molecules”

“Also recorded” adds a separate entry of the source.

For the molecule `O=C1NS(=O)(=O)c2ccccc21` [Saccharin], in assay [1], the “change of Fluo4-fluorescence / intracellular calcium on addition of the test molecule” value is reported as “dose-dependent increase of Fluo4-fluorescence”, the “Fluo-4 calcium response in the absence of extracellular Ca2+” value is recorded as “cannot trigger a Ca^2+ response; also recorded: did not trigger increase of intracellular Ca^2+; also recorded: no response” and the “Fluo-4 assay BR-HTC8” value is “+”. Further, in assay [1] (absence of extracellular calcium, increasing salicin with four fixed concentrations of saccharin), the “increase of intracellular calcium in response to salicin when combined with saccharin” value is recorded as “strongly enhanced”. In the assay with BR-HTC38 cells, the “dose-dependent Fluo-4 calcium response in BR-HTC38 compared with parental BR-HTC8” value is “enhanced”. For the same molecule, the “increase of Fluo4-fluorescence in control cells” value in assay [2] was “not in control cells”.
For the molecule `OCc1ccccc1O[C@@H]1O[C@H](CO)[C@@H](O)[C@H](O)[C@H]1O` [Salicin], in assay [1], the “change of Fluo4-fluorescence / intracellular calcium on addition of the test molecule” value was “dose-dependent increase of Fluo4-fluorescence”, the “Fluo-4 calcium response in the absence of extracellular Ca2+” value was “increase of intracellular calcium; also recorded: dose-dependent increase of Fluo4-fluorescence” and the “Fluo-4 assay BR-HTC8” value is listed as “+”. In the assay with BR-HTC38 cells, the “dose-dependent Fluo-4 calcium response in BR-HTC38 compared with parental BR-HTC8” value is reported as “enhanced”. In addition, the “increase of Fluo4-fluorescence in control cells” value in assay [2] is reported as “not in control cells”. The “change of cellular membrane potential (FLIPR FMP dye fluorescence) on addition of the test molecule” value in assay [3] is given as “did not elicit significant changes in cellular membrane potential”.
